“And” between values parts separate entries of the source, which are not always exact repeats. Equal entries are not always repeated.
Tests used:
[1] = system: cows (Holstein Friesians); test: Treatment with DPD analogs (organosulfur compounds) and milk yield (Example 8); assay type: in vivo, cow; conditions: individual cows; dose per compound as listed in E284
Method: Study design. 36 cows (Holstein Friesians) from 2 farms were used. The feed of the cows was composed of TMR, including corn and grass silage, supplemented with soya and minerals. […] The cows were milked in a milk robot. […] The cows were milked twice a day. The cows were housed in free stables. […] Placebo treatment corresponded to administration of two gel capsules containing 180 ml water.
For this study dosages synthetic compounds (>96% purity) as indicated in table 17 were administered to cows. The objective of this study was to compare the activity of a corresponding dose of the compounds expressed in mol, based on the number of moles that is present in 80 ml di-n-propyl disulfide at 20° C. The number of moles was converted to ml or grams of the tested compounds. For this purpose, the molecular weight and specific density were used in the calculations. The compounds were formulated in the gel capsules as indicated in the previous examples.
Before the various dosages were administered, the milk yields were monitored for at least 5 days.

cows = test: Effect of 40 ml and 80 ml oral DPD capsule vs placebo on the milk yield of cows (Example 1); assay type: in vivo, cow; set-up: average milk drop (Difference: observed minus expected milk yield) / average milk drop (difference): unit not given here; conditions: for Milk production: 40 ml DPD oral capsule on day 13, individual cows
Method: 15 cows from 3 different farms were used in study 1 and 30 cows from 4 different farms were used in study 2. […] The cows are milked twice a day. The cows were housed in free stables. […] The farmers were not informed which cows were treated.
The placebo group existed of 8 cows, whereas the size of the treated group was 7 cows.
For study 2, the gelatin capsule contained 80 ml of the DPD and the gelatine capsule for the placebo group contained tap water. Nine cows were administered a single dose of DPD 7 to 14 days before the start of their dry-off period and nine cows were administered a single dose of the placebo capsule. The cows were placed randomly in the DPD or placebo group. This was done per group that was dried off at the same time for every farm individually, so that every farm had 50% of the cows in the treatment group and 50% in the control group.
On t =13 days the DPD-containing capsules and the placebo capsules were administered.
The following hypothesis was tested and compared by statistical analysis: H0 is defined as there is no difference between the relative milk production before and after treatment between administering of the DPD bolus and placebo, and H1 is defined as there is a difference between the relative milk production before and after treatment between the DPD and placebo group.
The data were processed as follows: based on the data obtained from day 0, 1, 2, 3 . . . 12 the expected milk yields on day 13, 14, […] were calculated by linear regression for each cow. On t=13 the Placebo-capsule or DPD-containing capsule were administered into the rumen. The predicted data (as if no administration of a Placebo or DPD-containing capsule has taken place) and actual milk yields after administration were compared from t=13 days and the milk drop was calculated. This was performed for all the cows in the tests.
Hereafter, the average milk drop was calculated as the difference between the observed and the expected milk yield per day, which is calculated by comparing the expected milk yields that were obtained via linear regression, and the actual milk yields, obtained after treatment with a Placebo or DPD.
The Null Hypothesis is that the difference is zero. We calculate the P-values for these differences using a permutation test (5000 samples).
The Null Hypothesis was defined that that the difference of the 6 treatment cows and Placebo cows is zero. We calculate the P-values for these differences using a permutation test (5000 samples).

CCCSSCCC [DPD, di-n-propyl disulfide]
Milk yield (kg) After 24 h [1]: 8.5 kg | Milk yield (kg) After 48 h [1]: 7.4 kg | Milk yield (kg) After 72 h [1]: 15.6 kg | Milk yield (kg) After 96 h [1]: 17.7 kg | Milk production (cows; day 1 (before treatment)): 15.9 and 25.8 | Milk production (cows; day 2 (before treatment)): 15.3 and 31.7 and 5.9 | Milk production (cows; day 3 (before treatment)): 16 and 30.4 and −1.3 | Milk production (cows; day 4 (before treatment)): 15.6 and 29.9 | Milk production (cows; day 5 (before treatment)): 15.2 and 27.7 | Milk production (cows; day 6 (before treatment)): 14.5 and 28.4 and 23.6 and 24.5 | Milk production (cows; day 7 (before treatment)): 14.9 and 29.3 and 24 and 24.4 | Milk production (cows; day 8 (before treatment)): 13.4 and 28.1 and 22.4 and 24.6 | Milk production (cows; day 9 (before treatment)): 13.6 and 28.4 and 24.4 and 24.7 | Milk production (cows; day 10 (before treatment)): 13.8 and 27 and 23.4 and 25.3 | Milk production (cows; day 11 (before treatment)): 13.7 and 28.8 and 24.2 and 22.5 | Milk production (cows; day 12 (before treatment)): 12.9 and 27 and 21.7 and 22.2 | Milk production (cows; day 13 (day of treatment)): 12.9 and 27.7 and 23.2 and 20.4 | Milk production (cows; day 14): 12 and 26.4 and 22.2 and 22.3 | Milk production (cows; day 15): 11.4 and 23.7 and 23.1 and 20.5 | Milk production (cows; day 16): 11.4 and 21.5 and 23.7 and 24.4 | Milk production (cows; day 17): 12.8 and 25.4 and 23.1 and 22 | Milk production (cows; day 18): 10.9 and 27.5 and 23.2 and 14.8 | Milk production (cows; day 19): 11.6 and 25.7 and 22.9 and 9.8 | Milk production (cows; day 20): 10.2 and 24.8 and 22.3 and 24.3 | Milk production (cows; day 21): 9.9 and 23 and 21.3 and 25.8 | effect on milk yield (cows; 40 ml DPD vs placebo): not in a significant decrease on milk yield | Mean Difference Treatment − Placebo (cows; 40 ml DPD, day 14): −0.3233 litres milk per day per cow | Significant (effect on milk yield vs placebo) (cows; 40 ml DPD, day 14): No | average milk drop (Difference: observed minus expected milk yield) (cows; 40 ml DPD, day 14): −0.226 | Mean Difference Treatment − Placebo (cows; 40 ml DPD, day 15): −0.873 litres milk per day per cow | Significant (effect on milk yield vs placebo) (cows; 40 ml DPD, day 15): No | average milk drop (Difference: observed minus expected milk yield) (cows; 40 ml DPD, day 15): −0.9122 | Mean Difference Treatment − Placebo (cows; 40 ml DPD, day 16): 1.599 litres milk per day per cow | Significant (effect on milk yield vs placebo) (cows; 40 ml DPD, day 16): No | average milk drop (Difference: observed minus expected milk yield) (cows; 40 ml DPD, day 16): 1.673 | Mean Difference Treatment − Placebo (cows; 40 ml DPD, day 17): −0.4365 litres milk per day per cow | Significant (effect on milk yield vs placebo) (cows; 40 ml DPD, day 17): No | average milk drop (Difference: observed minus expected milk yield) (cows; 40 ml DPD, day 17): 1.201 | Mean Difference Treatment − Placebo (cows; 40 ml DPD, day 18): −0.5789 litres milk per day per cow | Significant (effect on milk yield vs placebo) (cows; 40 ml DPD, day 18): No | average milk drop (Difference: observed minus expected milk yield) (cows; 40 ml DPD, day 18): 0.4719 | Mean Difference Treatment − Placebo (cows; 40 ml DPD, day 19): −0.9982 litres milk per day per cow | Significant (effect on milk yield vs placebo) (cows; 40 ml DPD, day 19): No | average milk drop (Difference: observed minus expected milk yield) (cows; 40 ml DPD, day 19): −0.2714 | Mean Difference Treatment − Placebo (cows; 40 ml DPD, day 20): −0.296 litres milk per day per cow | Significant (effect on milk yield vs placebo) (cows; 40 ml DPD, day 20): No | average milk drop (Difference: observed minus expected milk yield) (cows; 40 ml DPD, day 20): 1.657 | Mean Difference Treatment − Placebo (cows; 40 ml DPD, day 21): 0.1722 litres milk per day per cow | Significant (effect on milk yield vs placebo) (cows; 40 ml DPD, day 21): No | average milk drop (Difference: observed minus expected milk yield) (cows; 40 ml DPD, day 21): 1.713 | effect on milk yield (cows; 80 ml DPD vs placebo): significant decrease in milk yield | recovery of milk yield production (cows; 80 ml DPD, after the 3 days following treatment): recovers after this period | Mean Difference Treatment − Placebo (cows; 80 ml DPD, day 13): 0.2566 litres milk per day per cow | Significance (effect on milk yield vs placebo) (cows; 80 ml DPD, day 13): No | average milk drop (difference) (cows; 80 ml DPD, day 13): 0.3592 | Mean Difference Treatment − Placebo (cows; 80 ml DPD, day 14): −4.56 litres milk per day per cow | Significance (effect on milk yield vs placebo) (cows; 80 ml DPD, day 14): Yes | average milk drop (difference) (cows; 80 ml DPD, day 14): −5.726 | Mean Difference Treatment − Placebo (cows; 80 ml DPD, day 15): −6.729 litres milk per day per cow | Significance (effect on milk yield vs placebo) (cows; 80 ml DPD, day 15): Yes | average milk drop (difference) (cows; 80 ml DPD, day 15): −7.051 | Mean Difference Treatment − Placebo (cows; 80 ml DPD, day 16): −4.421 litres milk per day per cow | Significance (effect on milk yield vs placebo) (cows; 80 ml DPD, day 16): Yes | average milk drop (difference) (cows; 80 ml DPD, day 16): −3.891 | Mean Difference Treatment − Placebo (cows; 80 ml DPD, day 17): −0.4065 litres milk per day per cow | Significance (effect on milk yield vs placebo) (cows; 80 ml DPD, day 17): No | average milk drop (difference) (cows; 80 ml DPD, day 17): −1.8508 | Mean Difference Treatment − Placebo (cows; 80 ml DPD, day 18): 0.2326 litres milk per day per cow | Significance (effect on milk yield vs placebo) (cows; 80 ml DPD, day 18): No | average milk drop (difference) (cows; 80 ml DPD, day 18): −1.4323 | Mean Difference Treatment − Placebo (cows; 80 ml DPD, day 19): 0.9803 litres milk per day per cow | Significance (effect on milk yield vs placebo) (cows; 80 ml DPD, day 19): No | average milk drop (difference) (cows; 80 ml DPD, day 19): −0.1878 | Mean Difference Treatment − Placebo (cows; 80 ml DPD, day 20): 1.162 litres milk per day per cow | Significance (effect on milk yield vs placebo) (cows; 80 ml DPD, day 20): No | average milk drop (difference) (cows; 80 ml DPD, day 20): 0.262 | decrease of milk production compared to the placebo group (average) (cows; 80 ml DPD, next 3 days after treatment): 6 litres per day per cow | decreased milk production (cows; DPD, day 2 after treatment): 7.7 L/day
